Reference: ChEMBL document CHEMBL4507291 (2021)

Columns and labels:
[1] = target: T1, Alpha-2C adrenergic receptor (Homo sapiens) (UniProt P18825); experiment: Adrenergic alpha2C Eurofins-Panlabs radioligand binding assay; parameters: ligand concentration 1 nM, non-specific ligand with concentration 10 µM WB-4101, incubation time 60 min, incubation temperature 25 °C; details: Compound concentration 10.0 uM
T1 sequence (whole entry): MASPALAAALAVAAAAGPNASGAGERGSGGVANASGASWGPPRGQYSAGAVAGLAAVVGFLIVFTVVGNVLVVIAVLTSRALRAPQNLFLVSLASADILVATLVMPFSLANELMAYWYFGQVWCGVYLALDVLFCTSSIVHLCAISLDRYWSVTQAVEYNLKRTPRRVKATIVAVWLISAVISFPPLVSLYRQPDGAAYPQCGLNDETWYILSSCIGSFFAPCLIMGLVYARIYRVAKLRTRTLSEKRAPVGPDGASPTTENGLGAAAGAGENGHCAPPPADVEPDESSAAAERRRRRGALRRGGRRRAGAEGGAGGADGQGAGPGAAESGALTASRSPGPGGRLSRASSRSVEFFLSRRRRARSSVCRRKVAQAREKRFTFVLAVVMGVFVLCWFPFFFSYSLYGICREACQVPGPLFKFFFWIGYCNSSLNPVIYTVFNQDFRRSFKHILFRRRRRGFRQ

[2] = target: Melanocortin receptor 5 (Homo sapiens) (UniProt P33032); experiment: Inhibition of Melanocortin MC5 at 10 µM in the Eurofins-Panlabs radioligand binding assay (Eurofins_assay_251400); parameters: ligand concentration 0.035 nM; details: Compound concentration 10.0 uM
[3] = target: Tyrosine-protein kinase ABL2 (Homo sapiens) (UniProt P42684); experiment: ABL2 (Arg) Kinase screen; details: Compound concentration 1.0 uM
[4] = target: T2, Serine/threonine-protein kinase DCLK2 (Homo sapiens) (UniProt Q8N568); experiment: DCAMKL2 (DCK2) Kinase screen; details: Compound concentration 1.0 uM
T2 sequence (whole entry): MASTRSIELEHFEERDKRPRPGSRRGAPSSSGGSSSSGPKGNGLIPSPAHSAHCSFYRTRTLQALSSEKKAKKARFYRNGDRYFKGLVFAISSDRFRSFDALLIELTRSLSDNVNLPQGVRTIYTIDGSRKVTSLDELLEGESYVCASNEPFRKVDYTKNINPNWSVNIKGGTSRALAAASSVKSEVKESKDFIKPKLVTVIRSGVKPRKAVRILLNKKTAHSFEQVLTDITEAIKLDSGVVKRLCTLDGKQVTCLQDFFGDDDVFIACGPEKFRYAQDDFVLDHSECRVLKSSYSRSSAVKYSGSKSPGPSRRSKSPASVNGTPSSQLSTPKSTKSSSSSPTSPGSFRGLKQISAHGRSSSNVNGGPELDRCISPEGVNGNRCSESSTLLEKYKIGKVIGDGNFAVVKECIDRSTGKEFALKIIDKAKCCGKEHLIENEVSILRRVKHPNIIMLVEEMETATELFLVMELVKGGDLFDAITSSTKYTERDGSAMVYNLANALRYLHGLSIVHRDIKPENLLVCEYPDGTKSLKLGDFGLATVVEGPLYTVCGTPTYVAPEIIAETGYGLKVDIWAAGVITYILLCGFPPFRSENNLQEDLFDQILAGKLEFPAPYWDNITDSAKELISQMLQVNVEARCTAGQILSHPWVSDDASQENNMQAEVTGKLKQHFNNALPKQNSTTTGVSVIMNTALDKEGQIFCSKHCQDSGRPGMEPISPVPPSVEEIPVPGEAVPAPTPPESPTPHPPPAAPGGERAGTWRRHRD

[5] = target: Receptor tyrosine-protein kinase erbB-4 (Homo sapiens) (UniProt Q15303); experiment: ERBB4 (HER4) Kinase screen; details: Compound concentration 1.0 uM
[6] = target: Glycogen synthase kinase-3 alpha (Homo sapiens) (UniProt P49840); experiment: GSK3A (GSK3 alpha) Kinase screen; details: Compound concentration 1.0 uM
[7] = target: Vascular endothelial growth factor receptor 2 (Homo sapiens) (UniProt P35968); experiment: KDR (VEGFR2) Kinase screen; details: Compound concentration 1.0 uM
[8] = target: Tyrosine-protein kinase Lck (Homo sapiens) (UniProt P06239); experiment: LCK Kinase screen; details: Compound concentration 1.0 uM
[9] = target: Mitogen-activated protein kinase 11 (Homo sapiens) (UniProt Q15759); experiment: MAPK11 (p38 beta) Kinase screen; details: Compound concentration 1.0 uM
[10] = target: Serine/threonine-protein kinase MARK2 (Homo sapiens) (UniProt Q7KZI7); experiment: MARK2 Kinase screen; details: Compound concentration 1.0 uM
[11] = target: Serine/threonine-protein kinase 26 (Homo sapiens) (UniProt Q9P289); experiment: MST4 Kinase screen; details: Compound concentration 1.0 uM
[12] = target: T3, Serine/threonine-protein kinase Sgk1 (Homo sapiens) (UniProt O00141); experiment: SGK (SGK1) Kinase screen; details: Compound concentration 1.0 uM
T3 sequence (whole entry): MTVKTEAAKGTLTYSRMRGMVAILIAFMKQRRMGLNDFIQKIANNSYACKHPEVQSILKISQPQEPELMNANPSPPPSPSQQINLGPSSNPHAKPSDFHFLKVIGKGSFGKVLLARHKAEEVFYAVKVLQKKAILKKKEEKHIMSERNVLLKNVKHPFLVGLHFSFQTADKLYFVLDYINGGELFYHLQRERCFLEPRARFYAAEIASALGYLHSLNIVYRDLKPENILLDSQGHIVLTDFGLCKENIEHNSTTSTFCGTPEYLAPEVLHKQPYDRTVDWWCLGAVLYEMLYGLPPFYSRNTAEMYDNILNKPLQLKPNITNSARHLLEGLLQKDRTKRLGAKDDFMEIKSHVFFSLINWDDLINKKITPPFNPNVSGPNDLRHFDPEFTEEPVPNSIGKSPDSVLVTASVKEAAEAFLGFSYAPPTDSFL

[13] = target: Sphingosine kinase 2 (Homo sapiens) (UniProt Q9NRA0); experiment: SPHK2 Kinase screen; details: Compound concentration 1.0 uM
Rattus norvegicus = species: Rattus norvegicus; experiment: Protein Serine/Threonine Kinase, PKC, Non-Selective Eurofins-Panlabs enzyme assay; details: Compound concentration 10.0 uM
[14] = target: Adenosine receptor A1 (Homo sapiens) (UniProt P30542); details: Compound concentration 10.0 uM
[15] = target: Gastrin/cholecystokinin type B receptor (Homo sapiens) (UniProt P32239); details: Compound concentration 10.0 uM
[16] = target: Testis-specific serine/threonine-protein kinase 1 (TSSK1B) (Homo sapiens) (UniProt Q9BXA7); experiment: STK22D (TSSK1) Kinase screen; details: Compound concentration 1.0 uM

Measured: inhibition

Sequence of Glycogen synthase kinase-3 alpha (Homo sapiens) (P49840 2-483 limits assumed): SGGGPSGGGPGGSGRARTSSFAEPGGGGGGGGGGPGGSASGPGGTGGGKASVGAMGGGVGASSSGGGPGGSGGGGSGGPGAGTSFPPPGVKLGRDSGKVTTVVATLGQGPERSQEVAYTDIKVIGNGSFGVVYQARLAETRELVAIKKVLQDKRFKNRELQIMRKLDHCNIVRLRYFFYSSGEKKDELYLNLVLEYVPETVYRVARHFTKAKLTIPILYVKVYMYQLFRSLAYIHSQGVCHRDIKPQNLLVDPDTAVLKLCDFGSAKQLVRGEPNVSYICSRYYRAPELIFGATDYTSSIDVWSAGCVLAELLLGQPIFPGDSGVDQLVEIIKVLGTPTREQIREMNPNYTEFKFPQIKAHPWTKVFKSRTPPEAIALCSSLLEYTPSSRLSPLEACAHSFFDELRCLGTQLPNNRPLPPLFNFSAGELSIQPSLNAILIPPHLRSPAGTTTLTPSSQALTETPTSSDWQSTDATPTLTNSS
Sequence of Sphingosine kinase 2 (Homo sapiens) (Q9NRA0 whole entry): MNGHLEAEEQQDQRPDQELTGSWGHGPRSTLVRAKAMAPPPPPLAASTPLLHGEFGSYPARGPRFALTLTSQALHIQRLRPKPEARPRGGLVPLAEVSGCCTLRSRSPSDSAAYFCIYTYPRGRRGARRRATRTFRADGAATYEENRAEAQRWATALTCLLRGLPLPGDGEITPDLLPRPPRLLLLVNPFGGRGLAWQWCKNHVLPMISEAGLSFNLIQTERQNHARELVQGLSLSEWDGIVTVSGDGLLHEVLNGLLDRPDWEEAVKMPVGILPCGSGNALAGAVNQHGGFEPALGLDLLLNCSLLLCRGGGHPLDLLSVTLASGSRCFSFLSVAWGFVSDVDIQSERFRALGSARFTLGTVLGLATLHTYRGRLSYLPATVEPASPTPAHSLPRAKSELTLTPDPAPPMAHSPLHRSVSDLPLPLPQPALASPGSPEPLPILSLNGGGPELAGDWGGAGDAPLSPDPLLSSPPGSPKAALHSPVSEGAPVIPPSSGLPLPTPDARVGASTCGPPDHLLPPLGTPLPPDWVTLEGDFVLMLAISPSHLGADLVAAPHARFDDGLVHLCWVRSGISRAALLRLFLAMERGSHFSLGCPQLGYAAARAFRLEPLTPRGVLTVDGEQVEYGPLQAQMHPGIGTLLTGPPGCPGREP
Sequence of Testis-specific serine/threonine-protein kinase 1 (TSSK1B) (Homo sapiens) (Q9BXA7 whole entry, looked up): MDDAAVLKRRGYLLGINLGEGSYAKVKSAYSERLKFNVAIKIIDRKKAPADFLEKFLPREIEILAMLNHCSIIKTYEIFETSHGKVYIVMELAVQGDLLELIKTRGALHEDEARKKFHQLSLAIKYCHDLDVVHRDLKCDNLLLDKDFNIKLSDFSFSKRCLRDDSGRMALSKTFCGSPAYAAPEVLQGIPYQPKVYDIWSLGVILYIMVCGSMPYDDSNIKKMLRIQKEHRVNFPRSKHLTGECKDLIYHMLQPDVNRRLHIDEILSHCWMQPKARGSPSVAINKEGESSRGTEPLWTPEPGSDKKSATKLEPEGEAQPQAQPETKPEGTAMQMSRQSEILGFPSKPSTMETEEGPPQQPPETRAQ
Sequence of Serine/threonine-protein kinase MARK2 (Homo sapiens) (Q7KZI7 whole entry): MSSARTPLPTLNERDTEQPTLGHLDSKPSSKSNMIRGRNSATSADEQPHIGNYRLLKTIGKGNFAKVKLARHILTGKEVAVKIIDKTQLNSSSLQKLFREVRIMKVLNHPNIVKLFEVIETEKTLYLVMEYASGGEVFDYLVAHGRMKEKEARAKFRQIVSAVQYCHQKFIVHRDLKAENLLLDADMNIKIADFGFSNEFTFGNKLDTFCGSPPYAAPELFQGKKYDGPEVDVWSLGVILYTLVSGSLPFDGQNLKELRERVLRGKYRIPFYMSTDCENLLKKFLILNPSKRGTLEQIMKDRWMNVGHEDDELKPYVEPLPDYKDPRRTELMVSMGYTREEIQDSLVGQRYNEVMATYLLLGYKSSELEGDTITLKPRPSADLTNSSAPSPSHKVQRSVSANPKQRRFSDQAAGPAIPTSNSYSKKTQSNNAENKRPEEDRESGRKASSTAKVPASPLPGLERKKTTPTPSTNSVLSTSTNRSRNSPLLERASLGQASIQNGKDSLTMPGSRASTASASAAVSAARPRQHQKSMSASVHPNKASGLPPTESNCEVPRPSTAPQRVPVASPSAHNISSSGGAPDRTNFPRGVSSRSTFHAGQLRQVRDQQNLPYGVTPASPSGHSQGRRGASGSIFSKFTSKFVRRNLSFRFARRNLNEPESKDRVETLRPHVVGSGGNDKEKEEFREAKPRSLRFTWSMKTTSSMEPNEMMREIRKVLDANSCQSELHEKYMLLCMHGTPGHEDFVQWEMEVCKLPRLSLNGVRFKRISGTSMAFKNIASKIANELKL
Sequence of Tyrosine-protein kinase Lck (Homo sapiens) (P06239 2-509 limits assumed): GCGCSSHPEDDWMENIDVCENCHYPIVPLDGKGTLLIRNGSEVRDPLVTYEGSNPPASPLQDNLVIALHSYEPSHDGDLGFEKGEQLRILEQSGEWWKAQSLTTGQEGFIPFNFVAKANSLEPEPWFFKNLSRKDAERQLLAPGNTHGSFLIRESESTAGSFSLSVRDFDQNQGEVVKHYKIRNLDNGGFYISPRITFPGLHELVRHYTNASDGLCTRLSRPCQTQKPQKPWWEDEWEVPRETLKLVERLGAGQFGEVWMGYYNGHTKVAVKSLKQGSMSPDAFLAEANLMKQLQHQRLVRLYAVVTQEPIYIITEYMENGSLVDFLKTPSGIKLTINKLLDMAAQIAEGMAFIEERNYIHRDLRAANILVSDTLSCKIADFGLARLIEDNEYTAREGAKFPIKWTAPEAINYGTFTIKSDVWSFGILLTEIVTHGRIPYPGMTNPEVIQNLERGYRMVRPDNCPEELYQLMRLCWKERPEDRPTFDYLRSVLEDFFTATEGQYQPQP
Sequence of Serine/threonine-protein kinase 26 (Homo sapiens) (Q9P289 2-416 limits assumed): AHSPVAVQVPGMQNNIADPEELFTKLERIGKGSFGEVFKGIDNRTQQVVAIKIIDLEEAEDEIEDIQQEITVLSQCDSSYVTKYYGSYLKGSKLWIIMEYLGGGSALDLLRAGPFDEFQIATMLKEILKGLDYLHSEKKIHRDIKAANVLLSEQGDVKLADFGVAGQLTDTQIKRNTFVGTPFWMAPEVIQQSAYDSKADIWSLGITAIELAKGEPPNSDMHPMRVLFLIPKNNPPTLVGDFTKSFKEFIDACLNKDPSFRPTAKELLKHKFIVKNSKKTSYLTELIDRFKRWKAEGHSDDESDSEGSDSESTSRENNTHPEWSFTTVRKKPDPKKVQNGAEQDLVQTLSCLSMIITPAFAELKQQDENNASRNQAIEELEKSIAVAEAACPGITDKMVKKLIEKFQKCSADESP
Sequence of Melanocortin receptor 5 (Homo sapiens) (P33032 whole entry): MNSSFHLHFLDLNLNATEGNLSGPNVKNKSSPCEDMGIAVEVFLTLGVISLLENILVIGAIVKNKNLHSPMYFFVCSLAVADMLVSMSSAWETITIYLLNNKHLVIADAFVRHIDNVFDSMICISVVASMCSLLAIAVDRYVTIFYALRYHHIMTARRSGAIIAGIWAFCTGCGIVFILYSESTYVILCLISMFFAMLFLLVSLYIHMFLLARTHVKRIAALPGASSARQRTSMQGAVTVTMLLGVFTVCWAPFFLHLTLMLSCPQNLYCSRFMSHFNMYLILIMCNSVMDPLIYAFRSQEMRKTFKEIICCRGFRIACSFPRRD
Sequence of Tyrosine-protein kinase ABL2 (Homo sapiens) (P42684 whole entry): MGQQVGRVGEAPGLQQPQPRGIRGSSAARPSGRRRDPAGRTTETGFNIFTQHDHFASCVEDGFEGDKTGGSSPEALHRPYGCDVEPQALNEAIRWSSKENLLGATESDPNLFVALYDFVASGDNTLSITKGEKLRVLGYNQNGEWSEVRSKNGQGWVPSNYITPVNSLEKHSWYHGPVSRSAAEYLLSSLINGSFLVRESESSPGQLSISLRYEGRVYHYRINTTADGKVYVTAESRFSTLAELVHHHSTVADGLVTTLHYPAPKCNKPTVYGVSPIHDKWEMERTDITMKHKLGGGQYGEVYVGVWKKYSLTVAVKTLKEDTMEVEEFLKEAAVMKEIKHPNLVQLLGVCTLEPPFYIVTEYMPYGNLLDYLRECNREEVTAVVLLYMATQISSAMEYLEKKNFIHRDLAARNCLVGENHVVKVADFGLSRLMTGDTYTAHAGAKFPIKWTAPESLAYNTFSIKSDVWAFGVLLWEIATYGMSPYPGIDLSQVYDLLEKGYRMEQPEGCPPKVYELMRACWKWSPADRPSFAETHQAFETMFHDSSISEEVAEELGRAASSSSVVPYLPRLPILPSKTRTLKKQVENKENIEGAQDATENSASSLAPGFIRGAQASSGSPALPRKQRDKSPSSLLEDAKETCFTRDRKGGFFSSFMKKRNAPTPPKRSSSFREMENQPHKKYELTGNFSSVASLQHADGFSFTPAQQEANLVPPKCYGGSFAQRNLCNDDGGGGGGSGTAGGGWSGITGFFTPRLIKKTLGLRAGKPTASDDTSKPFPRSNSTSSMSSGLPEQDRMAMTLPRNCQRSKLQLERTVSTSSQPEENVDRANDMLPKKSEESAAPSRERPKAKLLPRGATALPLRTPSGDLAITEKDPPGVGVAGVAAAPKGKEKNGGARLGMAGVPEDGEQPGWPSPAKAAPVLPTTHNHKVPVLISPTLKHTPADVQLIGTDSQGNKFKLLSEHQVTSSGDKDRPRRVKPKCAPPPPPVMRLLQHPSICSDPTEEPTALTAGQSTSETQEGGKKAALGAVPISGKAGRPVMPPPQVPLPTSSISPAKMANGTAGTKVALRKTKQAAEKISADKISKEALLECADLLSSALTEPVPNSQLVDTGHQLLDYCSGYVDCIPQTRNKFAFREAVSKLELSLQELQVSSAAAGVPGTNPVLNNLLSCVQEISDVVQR

C[C@@H]1CN(c2cc(-c3n[nH]c4ccc(OC5(C)CC5)cc34)ncn2)C[C@H](C)O1 [MLi-2]
inactive: [1] 14% | [2] -3% | [3] 0.91% | [4] 5.61% | [5] 11.9% | [6] 0.0184% | [7] 3.64% | [8] 10.4% | [9] 13% | [10] 7.83% | [11] 6.89% | [12] -1.63% | [13] -0.739% | Rattus norvegicus 26% | [14] 29% | [15] 15% | [16] 15.8%
